For 26 molecules, Emax and EC50 results are on record in US20250388584A1, “TPK AGONIST AND METHOD FOR TREATING NEURODEGENERATIVE DISEASES USING SAME” (SHANGHAI RAISING PHARMACEUTICAL CO., LTD., priority 2022, published 2025).

pEC50: −log10 of the molar value. Where two headings read alike, the source gives them in different places.

This assay addresses TPK enzyme (Homo sapiens (Human), UniProt Q9H3S4). The assay can be described thus: TPK enzyme activity test. The class given is biochemical. To be noted: for Emax: calculated with the effect of DMSO on TPK enzyme activity as 100%; for pEC50: promoting effect on TPK enzyme activity.

TPK enzyme, sequence (Q9H3S4 whole entry): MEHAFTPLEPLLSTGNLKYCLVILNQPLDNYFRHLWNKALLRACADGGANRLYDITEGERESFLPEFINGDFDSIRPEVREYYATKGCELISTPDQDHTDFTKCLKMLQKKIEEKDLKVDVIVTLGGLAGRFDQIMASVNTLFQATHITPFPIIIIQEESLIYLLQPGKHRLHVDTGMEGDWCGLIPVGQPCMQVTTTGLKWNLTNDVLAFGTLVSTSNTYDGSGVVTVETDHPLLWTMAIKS

With `COc1cc2[nH]c3c(=O)n(CC(=O)NCc4cccc(C(F)(F)F)c4)cnc3c2cc1OC` [Compound 113], the Emax (read-out: Emax) is 120%.

As to `CC(C)c1ccc(CNC(=O)CCn2cnc3c([nH]c4ccc(F)cc43)c2=O)cc1` [Compound 118], the Emax (read-out: Emax) is 122%. Still for that read-out and setting: the result for `Cc1ccc2[nH]c3c(=O)n(CCC(=O)NCCNc4ccc5c(c4)CCCC5)cnc3c2c1` [Compound 131, 3-(8-methyl-4-oxo-4,5-dihydro-3H-pyrimido[5,4-b]indol-3-yl)-N-(2-((5,6,7,8-tetrahydronaphthalen-2-yl)amino)ethyl)propanamide] reads 193%; that for `Cc1ccc2[nH]c3c(=O)n(CCC(=O)NCCNc4ccc5ccccc5c4)cnc3c2c1` [Compound 132, 3-(8-methyl-4-oxo-4,5-dihydro-3H-pyrimido[5,4-b]indol-3-yl)-N-(2-(naphthalen-2-ylamino)ethyl)propanamide], 163%; that for `Cc1ccc2[nH]c3c(=O)n(CCC(=O)NCc4cn5ccccc5n4)cnc3c2c1` [Compound 134, N-(imidazo[1,2-a]pyridin-2-ylmethyl)-3-(8-methyl-4-oxo-4,5-dihydro-3H-pyrimido[5,4-b]indol-3-yl)propanamide], 125%. `Cc1ccc2nc3c(=O)n(CCC(=O)N4CCN(c5cccc(C(F)(F)F)c5)CC4)cnc3cc2c1` [Compound 138, 8-methyl-3-(3-oxo-3-(4-(3-(trifluoromethyl)phenyl)piperazin-1-yl)propyl)pyrimido[5,4-b]quinolin-4(3H)-one] showed a pEC50 of 5.93. In addition, the Emax (read-out: Emax) is 146%.

`COc1ccc2c(c1)N1CCN(c3ccccc3OC)CC1C(C(=O)NCCN1CCCCC1)C2` (centres unmarked) [Compound 139] had a pEC50 of 6.02. In addition, under “read-out: Emax”, the Emax was 198%. In the case of `COc1ccc2c(c1)N1CCN(c3ccc(C)cc3)CC1C(C(=O)Nc1ccccc1)C2` (centres unmarked) [Compound 140], where the note is “read-out: Emax”, the Emax was 187%. `O=C(N[C@@H](Cc1ccc(F)cc1)C(=O)O)OCC1c2ccccc2-c2ccccc21` [Compound 141] had a pEC50 of 5.39. Also, the Emax (read-out: Emax) was 204%. The molecule `C[C@H](OC(C)(C)C)[C@@H](NC(=O)OCC1c2ccccc2-c2ccccc21)C(=O)O` [Compound 142] gave a pEC50 of 5.04. Further, the maximal response (Emax) (read-out: Emax) is 224%. `O=C(CCn1cnc2c(sc3ccccc32)c1=O)N1CCC(O)(c2cccc(C(F)(F)F)c2)CC1` [Compound 147, 3-(3-(4-hydroxy-4-(3-(trifluoromethyl)phenyl)piperidin-1-yl)-3-oxopropyl)benzo[4,5]thieno[3,2-d]pyrimidin-4(3H)-one]: the pEC50 is 5.11. Further, the Emax (read-out: Emax) was 160%. In the case of `O=C(CCn1cnc2c(oc3ccc(F)cc32)c1=O)N1CCN(c2cccc(C(F)(F)F)c2)CC1` [Compound 148, 8-fluoro-3-(3-oxo-3-(4-(3-(trifluoromethyl)phenyl)piperazin-1-yl)propyl)benzofuro[3,2-d]pyrimidin-4 (3H)-one], the negative logarithm of the EC50 (pEC50) is 5.70. Also, the maximal response (Emax) (read-out: Emax) is 151%. The like results for `O=C(CCn1cnc2c(oc3ccc(F)cc32)c1=O)N1CCC(Cc2ccc(F)cc2)CC1` [Compound 150, 8-fluoro-3-(3-(4-(4-fluorobenzyl)piperidin-1-yl)-3-oxopropyl)benzofuro[3,2-d]pyrimidin-4(3H)-one] were, in that order, 5.70 and 171%.

For `O=C(CCn1cnc2c(oc3ccc(F)cc32)c1=O)N1CCC(O)(c2cccc(C(F)(F)F)c2)CC1` [Compound 151, 8-fluoro-3-(3-(4-hydroxy-4-(3-(trifluoromethyl)phenyl)piperidin-1-yl)-3-oxopropyl)benzofuro[3,2-d]pyrimidin-4(3H)-one], the pEC50 was 5.22. For the same molecule, the Emax (read-out: Emax) was 189%. On to `O=C(CCn1cnc2c([nH]c3ccc(F)cc32)c1=O)N1CCN(c2cccc(C(F)(F)F)c2)CC1` [Compound 153, 8-fluoro-3-(3-oxo-3-(4-(3-(trifluoromethyl)phenyl)piperazin-1-yl)propyl)-3,5-dihydro-4H-pyrimido[5,4-b]indol-4-one], for which the Emax is recorded as 130.73% and the pEC50 was 5.50. Molecule `O=C(CCn1cnc2c([nH]c3ccc(F)cc32)c1=O)N1CCC(Cc2ccc(F)cc2)CC1` [Compound 154, 8-fluoro-3-(3-(4-(4-fluorobenzyl)piperidin-1-yl)-3-oxopropyl)-3,5-dihydro-4H-pyrimido[5,4-b]indol-4-one] showed a pEC50 of 5.59. The Emax (read-out: Emax) is 144%. For the molecule `Cc1ccc2[nH]c3c(=O)n(CCC(=O)N4CCC(Cc5ccc(F)cc5)CC4)cnc3c2c1` [Compound 164], the negative-log EC50 (pEC50) was 5.63.

Turning to `Cc1ccc2[nH]c3c(=O)n(CCC(=O)N4CCC(O)(c5cccc(C(F)(F)F)c5)CC4)cnc3c2c1` [Compound 165, 3-(3-(4-hydroxy-4-(3-(trifluoromethyl)phenyl)piperidin-1-yl)-3-oxopropyl)-8-methyl-3,5-dihydro-4H-pyrimido[5,4-b]indol-4-one], the negative logarithm of the EC50 (pEC50) is 5.60. Also, the Emax (read-out: Emax) is 157%. The molecule `Cc1ccc2[nH]c3c(=O)n(CCC(=O)N4CCC(N(C)c5cccc(Cl)c5Cl)CC4)cnc3c2c1` [Compound 166, 3-(3-(4-((2,3-dichlorophenyl)(methyl)amino)piperidin-1-yl)-3-oxopropyl)-8-methyl-3,5-dihydro-4H-pyrimido[5,4-b]indol-4-one] showed a pEC50 of 6.31. The maximal response (Emax) (read-out: Emax) is 119%. In the same order, the values of `Cc1ccc2[nH]c3c(=O)n(CCC(=O)N4CCN(c5ccc(S(=O)(=O)N6CCCCC6)cc5)CC4)cnc3c2c1` [Compound 169, 8-methyl-3-(3-oxo-3-(4-(4-(piperidin-1-ylsulfonyl)phenyl)piperazin-1-yl)propyl)-3,5-dihydro-4H-pyri mid[5,4-b]indol-4-one] are 5.67 and 147%. The molecule `Cc1ccc2[nH]c3c(=O)n(CCC(=O)N4CCN(c5cccc(S(=O)(=O)N6CCCCC6)c5)CC4)cnc3c2c1` [Compound 170, 8-methyl-3-(3-oxo-3-(4-(3-(piperidin-1-ylsulfonyl)phenyl)piperazin-1-yl)propyl)-3,5-dihydro-4H-pyrimido[5,4-b]indol-4-one] showed a pEC50 of 5.63. The Emax (read-out: Emax) was 151%. For the molecule `COC(=O)CCC(=O)OCCN1CCN(CCCN2c3ccccc3Sc3ccc(C(F)(F)F)cc32)CC1` [Compound 184, methyl (2-(4-(3-(2-(trifluoromethyl)-10H-phenothiazin-10-yl)propyl)piperazin-1-yl)ethyl) Succinate], the Emax was 176%. In turn, `O=C1CCCCN1CCCN1c2ccccc2Sc2ccccc21` [Compound 186, 1-(3-(10H-phenothiazin-10-yl)propyl)piperidin-2-one] had a pEC50 of 5.58. The Emax (read-out: Emax) was 176%. In the same order, the values of `O=C1CCCCN1CCCCCCN1c2ccccc2Sc2ccc(C(F)(F)F)cc21` [Compound 187, 1-(6-(2-(trifluoromethyl)-10H-phenothiazin-10-yl)hexyl)piperidin-2-one] are 5.95 and 191%. Molecule `O=C1c2ccccc2CN1CCCN1c2ccccc2Sc2ccccc21` [Compound 189, 2-(3-(10H-phenothiazin-10-yl)propyl)isoindolin-1-one] gave a pEC50 of 5.92. In addition, the Emax (read-out: Emax) was 180%. Take `O=C1Cc2ccc(OCCCN3c4ccccc4Sc4ccccc43)cc2N1` [Compound 190, 6-(3-(10H-phenothiazin-10-yl)propoxy)indoline-2-one]: the pEC50 is 5.96. Also, the Emax (read-out: Emax) is 164%.
